Data published in ChEMBL document CHEMBL3603764, “Structure-activity relationship of N-benzenesulfonyl matrinic acid derivatives as a novel class of coxsackievirus B3 inhibitors” (Bioorg Med Chem Lett, 2015).

Columns and labels:
Coxsackievirus B3 = experiment: Antivirus activity against Coxsackievirus B3 infected in African green monkey vero cells assessed as inhibition of virus-induced cytopathic effect; type: functional, organism-based; conditions: Enterovirus B
[1] = Cytotoxicity against African green monkey Vero cells assessed as growth inhibition after 48 hrs; type: cell-based; conditions: chlorocebus sabaeus, read-out: TC50
[2] = Selectivity index, ratio of TC50 for African green monkey vero cells to IC50 for Coxsackievirus B3; type: toxicity, cell-based; conditions: read-out: Selectivity Index

CC(=O)c1ccc(S(=O)(=O)N2C[C@@H]3CCCN4CCC[C@@H]([C@H]34)[C@H]2CCCCN2CCN(C)CC2)cc1
IC50 (Coxsackievirus B3): > 22.2 µM

N#Cc1ccc(S(=O)(=O)N2C[C@@H]3CCCN4CCC[C@@H]([C@H]34)[C@H]2CCCCN2CCOCC2)cc1
CC50 at 48 h [1]: 96.2 µM
IC50 (Coxsackievirus B3): > 22.2 µM

CC(=O)c1ccc(S(=O)(=O)N2C[C@@H]3CCCN4CCC[C@@H]([C@H]34)[C@H]2CCCC(=O)N2CCC2)cc1
CC50 at 48 h [1]: > 382 µM
IC50 (Coxsackievirus B3): > 127 µM

CN1CCN(CCCC[C@@H]2[C@H]3CCCN4CCC[C@@H](CN2S(=O)(=O)c2cccc(C(F)(F)F)c2)[C@@H]34)CC1
CC50 at 48 h [1]: 51.5 µM
IC50 (Coxsackievirus B3): > 7.4 µM

COC(=O)CCC[C@@H]1[C@H]2CCCN3CCC[C@@H](CN1S(=O)(=O)c1ccc(/C(C)=N/O)cc1)[C@@H]23
CC50 at 48 h [1]: 53.9 µM
IC50 (Coxsackievirus B3): > 39.3 µM

COC(=O)CCC[C@@H]1[C@H]2CCCN3CCC[C@@H](CN1S(=O)(=O)c1ccc(C(C)=O)cc1)[C@@H]23
selectivity ratio [2]: 22.5
CC50 at 48 h [1]: 193 µM
IC50 (Coxsackievirus B3): 8.58 µM

NC(=O)CCC[C@@H]1[C@H]2CCCN3CCC[C@@H](CN1S(=O)(=O)c1cccc(C(F)(F)F)c1)[C@@H]23
selectivity ratio [2]: 40.8
CC50 at 48 h [1]: 177 µM
IC50 (Coxsackievirus B3): 4.33 µM

CN(C)C(=O)CCC[C@@H]1[C@H]2CCCN3CCC[C@@H](CN1S(=O)(=O)c1cccc(C(F)(F)F)c1)[C@@H]23
selectivity ratio [2]: 67.2
CC50 at 48 h [1]: 168 µM
IC50 (Coxsackievirus B3): 2.49 µM

COC(=O)c1ccc(S(=O)(=O)N2C[C@@H]3CCCN4CCC[C@@H]([C@H]34)[C@H]2CCCCN2CCN(C)CC2)cc1
IC50 (Coxsackievirus B3): > 22.2 µM

COCCCC[C@@H]1[C@H]2CCCN3CCC[C@@H](CN1S(=O)(=O)c1cccc(C#N)c1)[C@@H]23
selectivity ratio [2]: 39.5
CC50 at 48 h [1]: 332 µM
IC50 (Coxsackievirus B3): 8.41 µM

CN1CCN(CCCC[C@@H]2[C@H]3CCCN4CCC[C@@H](CN2S(=O)(=O)c2cccc(C#N)c2)[C@@H]34)CC1
CC50 at 48 h [1]: 116 µM
IC50 (Coxsackievirus B3): > 22.2 µM

CC(=O)c1ccc(S(=O)(=O)N2C[C@@H]3CCCN4CCC[C@@H]([C@H]34)[C@H]2CCCC(=O)N2CCOCC2)cc1
CC50 at 48 h [1]: > 361 µM
IC50 (Coxsackievirus B3): > 118 µM

COCCCC[C@@H]1[C@H]2CCCN3CCC[C@@H](CN1S(=O)(=O)c1cccc(C(F)(F)F)c1)[C@@H]23
selectivity ratio [2]: 57.4
CC50 at 48 h [1]: 75.4 µM
IC50 (Coxsackievirus B3): 1.31 µM

CC(=O)c1ccc(S(=O)(=O)N2C[C@@H]3CCCN4CCC[C@@H]([C@H]34)[C@H]2CCCC(=O)N(C)C)cc1
CC50 at 48 h [1]: > 391 µM
IC50 (Coxsackievirus B3): > 130 µM

O=C(CCC[C@@H]1[C@H]2CCCN3CCC[C@@H](CN1S(=O)(=O)c1ccc(OC(F)(F)F)cc1)[C@@H]23)N1CCOCC1
selectivity ratio [2]: 22.5
CC50 at 48 h [1]: 162 µM
IC50 (Coxsackievirus B3): 7.19 µM

CN(C)CCCC[C@@H]1[C@H]2CCCN3CCC[C@@H](CN1S(=O)(=O)c1ccc(C#N)cc1)[C@@H]23
CC50 at 48 h [1]: 96.2 µM
IC50 (Coxsackievirus B3): > 22.2 µM

O=C(O)CCC[C@@H]1[C@H]2CCCN3CCC[C@@H](CN1S(=O)(=O)c1ccc(OC(F)(F)F)cc1)[C@@H]23
CC50 at 48 h [1]: > 380 µM
IC50 (Coxsackievirus B3): > 127 µM

CC(=O)c1ccc(S(=O)(=O)N2C[C@@H]3CCCN4CCC[C@@H]([C@H]34)[C@H]2CCCC(=O)O)cc1
CC50 at 48 h [1]: > 413 µM
IC50 (Coxsackievirus B3): > 138 µM

CN(C)C(=O)CCC[C@@H]1[C@H]2CCCN3CCC[C@@H](CN1S(=O)(=O)c1ccc(OC(F)(F)F)cc1)[C@@H]23
selectivity ratio [2]: 63.3
CC50 at 48 h [1]: 174 µM
IC50 (Coxsackievirus B3): 2.74 µM

O=S(=O)(c1ccc(OC(F)(F)F)cc1)N1C[C@@H]2CCCN3CCC[C@@H]([C@H]23)[C@H]1CCCCO
selectivity ratio [2]: 10.1
CC50 at 48 h [1]: 101 µM
IC50 (Coxsackievirus B3): 10 µM

CC(=O)c1ccc(S(=O)(=O)N2C[C@@H]3CCCN4CCC[C@@H]([C@H]34)[C@H]2CCCCN2CCOCC2)cc1
IC50 (Coxsackievirus B3): > 22.2 µM

CN1CCN(CCCC[C@@H]2[C@H]3CCCN4CCC[C@@H](CN2S(=O)(=O)c2ccc(C#N)cc2)[C@@H]34)CC1
IC50 (Coxsackievirus B3): > 22.2 µM

CC(O)c1ccc(S(=O)(=O)N2C[C@@H]3CCCN4CCC[C@@H]([C@H]34)[C@H]2CCCCO)cc1 (some centres undefined)
CC50 at 48 h [1]: > 425 µM
IC50 (Coxsackievirus B3): > 142 µM

O=C(CCC[C@@H]1[C@H]2CCCN3CCC[C@@H](CN1S(=O)(=O)c1cccc(C(F)(F)F)c1)[C@@H]23)N1CCOCC1
selectivity ratio [2]: 38.9
CC50 at 48 h [1]: 156 µM
IC50 (Coxsackievirus B3): 3.95 µM

CN1CCN(CCCC[C@@H]2[C@H]3CCCN4CCC[C@@H](CN2S(=O)(=O)c2ccc(S(C)(=O)=O)cc2)[C@@H]34)CC1
IC50 (Coxsackievirus B3): > 22.2 µM

CC(=O)c1ccc(S(=O)(=O)N2C[C@@H]3CCCN4CCC[C@@H]([C@H]34)[C@H]2CCCCN(C)C)cc1
IC50 (Coxsackievirus B3): > 22.2 µM

CNC(=O)CCC[C@@H]1[C@H]2CCCN3CCC[C@@H](CN1S(=O)(=O)c1cccc(C(F)(F)F)c1)[C@@H]23
selectivity ratio [2]: 67.2
CC50 at 48 h [1]: 172 µM
IC50 (Coxsackievirus B3): 2.56 µM

O=C(CCC[C@@H]1[C@H]2CCCN3CCC[C@@H](CN1S(=O)(=O)c1ccc(OC(F)(F)F)cc1)[C@@H]23)N1CCC1
selectivity ratio [2]: 21.2
CC50 at 48 h [1]: 170 µM
IC50 (Coxsackievirus B3): 5.58 µM

COC(=O)CCC[C@@H]1[C@H]2CCCN3CCC[C@@H](CN1S(=O)(=O)c1ccc(OC(F)(F)F)cc1)[C@@H]23
selectivity ratio [2]: 13
CC50 at 48 h [1]: 191 µM
IC50 (Coxsackievirus B3): 14.7 µM
